Legend:
[1] = tested on: telomerase (total cell lysates of lung cancer cell line H1299); experiment: Telomeric repeat amplification protocol (TRAP) telomerase activity analysis; type: biochemical; settings: 100 μM of compound; telomerase source H1299 cell lysate; gel electrophoresis, SYBER Green staining
Method: Telomerase elongated product (CX primer: [NT]) was replicated by PCR. […] Three different concentrations of compounds were performed.

## O=C(CCl)Nc1ccc2c(c1)C(=O)c1ccc(NC(=O)CCl)cc1C2=O
other
  melting point: 323 to 324 °C

## O=C(CCl)Nc1cccc2c1C(=O)c1cccc(NC(=O)CCl)c1C2=O [Compound 11, 1,5-Bis(chloroacetamido)anthraquinone]
other
  melting point: 349 to 350 °C

## COC(=O)CNCCC(=O)Nc1cccc2c1C(=O)c1cccc(NC(=O)CCNCC(=O)OC)c1C2=O [Compound 21]
[1]
  telomerase inhibition activity (TRAP analysis, FIG. 5): have telomerase inhibition activity
other
  melting point: 150 to 151 °C

## COC(=O)CNCCC(=O)Nc1ccc(NC(=O)CCNCC(=O)OC)c2c1C(=O)c1ccccc1C2=O [Compound 10]
[1]
  telomerase inhibition activity (TRAP analysis, FIG. 5): have telomerase inhibition activity
other
  melting point: 155 to 156 °C

From patent US20120316234A1, “ANTHRAQUINONE -BASED COMPOUND, THE SYNTHESIS PROCESSES AND THE APPLICATION THEREOF” (NATIONAL DEFENSE MEDICAL CENTER, priority 2011, published 2012)
